Data as given in patent US11479770B2, “Use of p38 inhibitors to reduce expression of DUX4” (Fulcrum Therapeutics, Inc., priority 2017, dated 2022).

Experiments:
Assay type in all cases: cell-based, human
[1] = test system: myogenin (MYOG) mRNA; assay: MYOG mRNA expression (qPCR) in FSHD myotubes; details: multiple concentrations
Method: (§1) On day 0, the media was changed to differentiation media. Plates were removed from the incubator and the growth medium was aspirated, plates were washed once with PBS, 100 μL, for 96-wells and 1 mL for a 6-well plate, 100 μL, or 2 mL of differentiation medium was added per well, 96- or 6-well respectively. Antisense oligonucleotides or drug were added at the desired concentration, and the plates were put back in the incubator and incubated for 3-4 days.
(§2) Cells were removed from the incubator and media aspirated. Cells were quickly lysed following one of the following protocols: for lysis in 96-well plates, direct lysis and one-step RT-Preamp qPCR was performed according to the protocol described below. For each 96-well, a mix containing: 19.5 μL Roche Realtime Ready lysis buffer, 0.25 μL RNAse inhibitor, 0.25 μL DNAseI (from Thermo not the included one in the kit) was prepared. 20 μL of the mix was added to each well, mixed 5 times, and incubated 5 minutes at RT or alternatively shaken vigorously for 15 minutes. Lysis was observed under the microscope. Samples were frozen −80° C. at least for 15 minutes.
For qPCR, cell lysate was diluted 1:10, and 2 μL was used for a 10 μL 1-step RT-qPCR reaction for detection of GAPDH, RPLPO, TBP, MYOG, FRG1, MYH3, ACTN2, etc. Per 10 μL reaction, the reaction mix included: 2 μL of RNA (1:10 dilution lysate), 5 μL of Fast Advanced Taqman Master Mix (2×), 0.25 μL of RT enzyme mix (40×), 0.5 μL of Taqman probe set (20×), and 2.25 μL of H2O. The following reaction protocol was run on the QuantStudio 7: 48° C. for 15 min, 50° C. for 2 min, 95° C. for 30 sec, 40×, 95° C. for 5 sec, 60° C. for 30 sec, after which the plates were read as specified by the manufacturer (Thermo).
(§3) Wild type myotubes and mature patient-derived FSHD myotubes that express DUX4 protein were treated with DMSO vehicle control or multiple concentrations of various p38α/β inhibitors with different ranges of isoform and kinome selectivity, including SB239063 (FIG. 4A), VX-702 (FIG. 4B), Pamapimod (FIG. 4C), and TAK-715 (FIG. 4D). After treatment, the control and treated cells were processed for realtime PCR quantification of MBD3L2 mRNA (DUX4 downstream gene) and myogenin (MYOG) mRNA (control) expression.

[2] = test system: MBD3L2 mRNA (DUX4 downstream gene); assay: MBD3L2 mRNA expression (qPCR) in FSHD myotubes
Method: as §1, §2
1-step RT-Preamplification was used for detection of DUX4 downstream genes, i.e., MBD3L2, ZSCAN4, LEUTX, TRIM43, KHDC1L, and POL2RA-VIC was used as endogenous control. Per 10 μL reaction, the reaction mix included: 2.25 μL of RNA (1:10 dilution lysate), 5 μL of Taqman Pre-Amp Master Mix (2×), 0.25 μL of RT enzyme mix (40×), 2.5 μL of Taqman probe set (0.2×)*. * For pooling the TaqMan Assays, equal volumes of each 20× TaqMan® Gene Expression Assay were used, and up to 100 assays were combined. For example, to pool 50 TaqMan assays, 10 μL of each assay were combined in a microcentrifuge tube. The pooled TaqMan assays were diluted using 1× TE buffer so that each assay was at a final concentration of 0.2×. For the above example, 500 μL of 1× TE buffer was added to the pooled TaqMan assays for a total final volume of 1 mL. The QuantStudio7 protocol was used at 48° C. 15 min, 95° C. 10 min, 10 cycles: 95° C. 15 sec, 60° C. 4 min, and 4° C. infinite Samples were then diluted to 50 μL and continued with the qPCR step. Per 10 μL reaction, the reaction mix included: 2 μL of Preamp dilution, 5 μL of Fast Advanced Taqman Master Mix (2×), 0.5 μL of Taqman probe set (20×), and 2.5 μL of H2O. When multiplexing, the volume was adjusted to 10 μL total. The following program was run on the QuantStudio7: 50° C. for 2 min, 95° C. for 30 sec, 40×, 95° C. for 5 sec, 60° C. for 30 sec, and plates were read as per the manufacturers specifications (Thermo).
as §3

[3] = test system: active Caspase-3; assay: Apoptosis by active Caspase-3 in FSHD myotubes; details: 1 μM; to level similar to healthy control line
Method: Briefly, cells were fixed in 4% paraformaldehyde and permeabilized in […] for 10 min at room temperature. Cells were permeabilized with PBST (1× PBS solution with 0.1% Triton X-100) before blocking with 10% Normal Donkey Serum or 3% BSA (NDS) in PBST. Cells were then incubated with appropriately diluted primary antibodies in PBST with 5% NDS for 1 hours at room temperature or 12 hours at 4° C., washed with PBST for 3 times at room temperature, and then incubated with desired secondary antibodies in TBST with 5% NDS and DAPI to counterstain the nuclei. DUX4 was detected by immunocytochemistry using the E5-5 antibody in differentiated FSHD myotubes. Activated Caspase-3 was detected using a commercially available antibody (https://www.cellsignal.com/products/primary-antibodies/cleaved-caspase-3-asp175-antibody/9661).
Apoptosis was measured by active Caspase-3 levels in FSHD myotubes in vitro as described in Materials and Methods. Apoptosis was detected in a sporadic manner in a subset of myotubes in culture as shown by the white circles and magnified region in FIG. 9A. Active Caspase-3 signal was quantified in FSHD myotubes that had been treated with FTX-1821 at different concentrations (FIG. 9B). […] No change in active Caspase-3 signal was observed following DMSO treatment. […]

[4] = test system: DUX4-fl mRNA; assay: DUX4 / DUX4-fl mRNA expression in FSHD myotubes
Method: cDNA preparation. 10 μL reactions included 1 μL of RNA (1 μg), 0.5 μL of Oligo dT, 0.5 μL of 10 mM dNTPs, and 4.5 μL of H2O. Reaction samples were incubated at 65° C. for 2 min and quickly moved to ice and held at least 1 min before adding the enzyme mix, which included 2 μL of 5× First strand Buffer, 0.5 μL of 0.1M DTT, 0.5 μL of RNAse inhibitor, 0.5 μL of SSIV RT. The samples were incubated at 55° C. for 20 min and 80° C. for 10 min, followed by cool down to 4° C. […]
DUX4 qPCR with nested primers was performed in a 10 μL reaction containing 1 μL of DUX4 pre amplification DNA, 5 μL of 2× IQ SYBR Mix, 0.4 μL of 10 μM TJ38F, 0.4 μL of 10 μM TJ41R, and 3.2 μL H2O. […] 10 seconds, then the plates were read on QuantStudio7 as per manufactures instruction (Thermo). […]
Wild type myotubes were treated with DMSO control vehicle, and mature patient-derived FSHD myotubes that express DUX4 protein were treated with DMSO vehicle control or 1 μM of a DUX4 sequence-directed antisense oligonucleotide (ASO; FTX-2) purchased from Exiqon. After treatment, the myotubes were lysed in 19.5 μL of Roche Real Time Ready Lysis Buffer, 0.25 μL of DNAse1 (Ambion, AM2222), 0.25 μL of Protector RNase Inhibitor (Roche, 3335402001), and the RNA was collected in an RNeasy Micro Kit Master Mix. […]

[5] = test system: ZSCAN4, TRIM43, MBD3L2, LEUTX, and KHDC1L; assay: DUX4-regulated downstream gene expression (real time PCR) in FSHD myotubes; details: 1 μM ASO
Method: Wild type myotubes were treated with DMSO control vehicle, and mature patient-derived FSHD myotubes that express DUX4 protein were treated with DMSO vehicle control or 1 μM of a DUX4 sequence-directed antisense oligonucleotide (ASO; FTX-2) purchased from Exiqon. After treatment, the myotubes were lysed in 19.5 μL of Roche Real Time Ready Lysis Buffer, 0.25 μL of DNAse1 (Ambion, AM2222), 0.25 μL of Protector RNase Inhibitor (Roche, 3335402001), and the RNA was collected in an RNeasy Micro Kit Master Mix. Expression levels of DUX4-regulated downstream genes (ZSCAN4, TRIM43, MBD3L2, LEUTX, and KHDC1L) was determined by real time PCR (ThermoFisher Scientific, 4484262), ZSCAN4 Taqman Assay (ThermoFisher Scientific, Hs00537549_m1, FAM-MGB), MYOG Taqman Assay (ThermoFisher Scientific, Hs01072232_m1, JUN-QSY), RPLPO Taqman Assay (ThermoFisher Scientific, Hs99999902_m1), and/or LEUTX Taqman Assay (ThermoFisher Scientific, Hs00418470_m1). Ct values were extracted from QuantStudio Realtime PCR software, and Genedata was used to calculate relative levels of expression using POLR2A as a housekeeping gene.

Compound: COc1nccc(-c2c(-c3ccc(F)cc3)ncn2C2CCC(O)CC2)n1 (stereo not drawn) [SB239063]
- impact to MYOG mRNA expression [1]: no impact

Compound: Cn1c(=O)c(Oc2ccc(F)cc2F)cc2cnc(NC(CCO)CCO)nc21 [FTX-839, Pamapimod]
- impact to MYOG mRNA expression [1]: no impact
- MBD3L2 mRNA in FSHD1 and FSHD2 primary patient myoblast lines ([2]; 1 μM, to levels similar to healthy control lines): reduction
- MBD3L2 mRNA levels normalized to POLR2A mRNA ([2]; FSHD myotubes, 10, 100, and 1000 nM vs DMSO): dose-dependently reduced
- MBD3L2 expression levels in four FSHD patient lines ([2]; FTCE-016, -020, -197, -196 myotubes, 1 μM, to levels similar to healthy controls): reduced
- apoptosis (active caspase-3) across FSHD1 and FSHD2 lines [3]: reduction

Compound: CCc1nc(-c2cccc(C)c2)c(-c2ccnc(NC(=O)c3ccccc3)c2)s1 [TAK-715]
- impact to MYOG mRNA expression [1]: no impact

Compound: NC(=O)c1ccc(N(C(N)=O)c2c(F)cccc2F)nc1-c1ccc(F)cc1F [VX-702]
- impact to MYOG mRNA expression [1]: no impact

Compound: FTX-2: DUX4 sequence-directed antisense oligonucleotide purchased from Exiqon, CAGCGTCGGAAGGTGG (SEQ ID NO:18) (listed as DNA, chemistry not given here)
- DUX4 expression vs DMSO vehicle control ([4]; 1 μM ASO): reduced
- DUX4 expression, different dilutions ([4]; different dilutions of the ASO): dose dependent reduction
- MBD3L2 expression, different dilutions ([2]; FSHD myotubes, different dilutions of the ASO): dose dependent reduction
- expression of DUX4 downstream target genes ZSCAN4, TRIM43, MBD3L2, LEUTX, and KHDC1L vs DMSO [5]: reduced
